Results as given in paper PMC4182301, “Design, synthesis and SAR exploration of tri-substituted 1,2,4-triazoles as inhibitors of the annexin A2–S100A10 protein interaction” (Bioorganic & Medicinal Chemistry, 2014).
“Also recorded” adds a separate entry of the source. Like-named read-outs stand apart in the source and are kept apart here.

Tests used:
[1] = biological target: interaction between the AnxA2 N-terminus and S100A10 (Homo sapiens, UniProt P60903); assay: Fluorescence screening assay (FRET competitive binding, Cy3-AnxA2(Ac1–14) peptide / Cy5-S100A10); details: for pIC50 ± SE / IC50: FRET assay, 12 observations; for fold increase in potency compared to initial hit compound 1a: relative to 1a; for fold loss of activity on truncation of the 4,6-dimethylpyrimidin-2-ylsulfanyl side chain to methyl: relative to parent compound (64 vs 36, 65 vs 46, 66 vs 47)
Sequence of interaction between the AnxA2 N-terminus and S100A10 (P60903 whole entry, species assumed, the tested form may be a part): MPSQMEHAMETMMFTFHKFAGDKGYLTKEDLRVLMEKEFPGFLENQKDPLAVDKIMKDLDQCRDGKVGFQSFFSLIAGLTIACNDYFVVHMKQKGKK
Method: Assessment of compound activity was performed as described.[35] Briefly, a Cy5-labelled S100A10 tracer was developed and binding of a Cy3-labelled AnxA2(Ac1–14) peptide ligand was assessed using a fluorescence resonance energy transfer readout. Assays were carried out in Nunc black non-treated 384-well plates at 20 °C in 50 μL buffer C. All incubations were performed in quadruplicate. Compounds, peptide and buffer controls were added to the wells in a 10 μL volume in 5% DMSO. Cy5-labelled S100A10 tracer (407 nM) and Cy3-labelled AnxA2(Ac1–14) peptide ligand (1.33 μM) were pre-incubated for 5 min at 20 °C and 40 μL of the preformed complex was then added to the wells and mixed for 10 s to yield a final DMSO concentration of 1%. After 5 min incubation at 20 °C, readings were taken on a Perkin Elmer Envision plate reader by excitation at 488 nm and emission at 695 nm. Fluorescence resonance energy transfer (FRET) was calculated by subtracting the sum of the fluorescence emission of S100A10-Cy5 and AA2(1–14)-Cy3 individually from that measured for the co-incubated partners. Compound binding was calculated as percentage of non-treated control and data were analysed by non-linear regression (dose response—variable slope with bottom and top parameters fixed at 0% and 100%, respectively) using Graphpad Prism Software to determine the IC50 of binding (primary assay).

[2] = biological target: T1, native complex between annexin A2 and S100A10 (Homo sapiens, UniProt P60903); assay: Co-immunoprecipitation of AnxA2 with S100A10 (native complex) from cell lysates, Western blot; format: binding; details: MDA-MB-231 cell lysates preincubated with compound or peptide; compared with vehicle
T1 construct: the native complex of the two full-length proteins, AnxA2 and S100A10; endogenous in cells; host or cells: MDA-MB-231 human breast cancer cells (lysate)
T1 sequence (P60903 whole entry, one chain of several): as the sequence (P60903 whole entry, species assumed, the tested form may be a part) above
Method: In the presence of the isolated synthetic peptide AnxA2(1–14), the amount of AnxA2 in the S100A10 immunoprecipitate is reduced, due to it competing with the binding between native AnxA2 and S100A10.
Figure 5 Co-immunoprecipitation of AnxA2 with S100A10. S100A10 was immunoprecipitated from cell lysates and co-immunoprecipitation of AnxA2 was assessed by Western blotting. The amount of AnxA2 in the S100A10 immunoprecipitate was quantified using Scion Image Software and expressed as a percentage of the vehicle-treated sample (n = 4 ± SE).
Human MDA-MB-231 breast cancer cells were extracted in 50 mM Tris–HCl (pH 8.0) buffer containing 150 mM sodium chloride and 1% (v/v) NP-40. Lysates were centrifuged at 17,000×g and incubated at 4 °C for 16 h with 10 μL S100A10 antibody (BD transduction Laboratories) and 50 μL protein A/G agarose (Alpha Diagnostic International Inc). […] The supernatant was then analyzed by SDS–PAGE after which the gel was transferred to a nitrocellulose filter. […]

[3] = Table 1, read-out: pIC50 ± SE (converted)

Compound: Cc1cc(C)nc(SCc2nnc(SCC(=O)Nc3nc(C)cs3)n2Cc2ccco2)n1 [Compound 29, 2-[5-(4,6-Dimethyl-pyrimidin-2-ylsulfanylmethyl)-4-furan-2-ylmethyl-4H-[1,2,4]triazol-3-ylsulfanyl]-N-(4-methyl-thiazol-2-yl)-acetamide]
- pIC50 ± SE ([1]; Table 1): 4.53 ± 0.06
- IC50 ([1]; Table 1, read-out: IC50): 30 µM

Compound: Cc1ccc(NC(=O)CSc2nnc(CSc3nc(C)cc(C)n3)n2Cc2ccco2)cc1 [Compound 33, 2-[5-(4,6-Dimethyl-pyrimidin-2-ylsulfanylmethyl)-4-furan-2-ylmethyl-4H-[1,2,4]triazol-3-ylsulfanyl]-N-p-tolyl-acetamide]
- pIC50 ± SE ([1]; Table 1): 4.96 ± 0.04
- IC50 ([1]; Table 1, read-out: IC50): 11 µM

Compound: Cc1cc(C)nc(SCc2nnc(SCC(=O)Nc3ccc(Br)cc3)n2Cc2ccco2)n1 [Compound 40, N-(4-Bromo-phenyl)-2-[5-(4,6-dimethyl-pyrimidin-2-ylsulfanylmethyl)-4-furan-2-ylmethyl-4H-[1,2,4]triazol-3-ylsulfanyl]-acetamide]
- pIC50 ± SE ([1]; Table 1): 5.14 ± 0.03
- IC50 ([1]; Table 1, read-out: IC50): 7 µM
- fold increase in potency compared to initial hit compound 1a [1]: 5 fold

Compound: Cc1cc(C)nc(SCc2nnc(SCC(=O)Nc3cc(C(F)(F)F)cc(C(F)(F)F)c3)n2Cc2ccco2)n1 [Compound 38, N-(3,5-Bis-trifluoromethyl-phenyl)-2-[5-(4,6-dimethyl-pyrimidin-2-ylsulfanylmethyl)-4-furan-2-ylmethyl-4H-[1,2,4]triazol-3-ylsulfanyl]-acetamide]
- pIC50 ± SE ([1]; Table 1): 5.05 ± 0.03
- IC50 ([1]; Table 1, read-out: IC50): 9 µM

Compound: COCCCn1c(CSc2nc(C)cc(C)n2)nnc1SCC(=O)Nc1ccc(C)c(C)c1 [Compound 42, N-(3,4-Dimethyl-phenyl)-2-[5-(4,6-dimethyl-pyrimidin-2-ylsulfanylmethyl)-4-(3-methoxy-propyl)-4H-[1,2,4]triazol-3-ylsulfanyl]-acetamide]
- pIC50 ± SE ([1]; Table 2): 4.49 ± 0.04
- IC50 ([1]; Table 2, read-out: IC50): 32 µM

Compound: COCCCn1c(CSc2nc(C)cc(C)n2)nnc1SCC(=O)Nc1ccc(C(F)(F)F)cc1 [Compound 51, 2-[5-(4,6-Dimethyl-pyrimidin-2-ylsulfanylmethyl)-4-(3-methoxy-propyl)-4H-[1,2,4]triazol-3-ylsulfanyl]-N-(4-trifluoromethyl-phenyl)-acetamide]
- pIC50 ± SE ([1]; Table 2): 5.02 ± 0.04
- IC50 ([1]; Table 2, read-out: IC50): 10 µM

Compound: Cc1cc(C)nc(SCc2nnc(SCC(=O)Nc3ccc(C(F)(F)F)cc3)n2Cc2ccco2)n1 [Compound 37, 2-[5-(4,6-Dimethyl-pyrimidin-2-ylsulfanylmethyl)-4-furan-2-ylmethyl-4H-[1,2,4]triazol-3-ylsulfanyl]-N-(4-trifluoromethyl-phenyl)-acetamide]
- pIC50 ± SE ([1]; Table 1): 4.55 ± 0.07
- IC50 ([1]; Table 1, read-out: IC50): 28 µM

Compound: Cc1nnc(NC(=O)CSc2nnc(Cc3ccccc3)n2Cc2ccccc2)s1 [Compound 1b]
- IC50 ([1]; Table 1, read-out: IC50): 53 µM

Compound: COc1ccc(NC(=O)CSc2nnc(CSc3nc(C)cc(C)n3)n2-c2ccc(OC)cc2)cc1 [Compound 56, 2-[5-(4,6-Dimethyl-pyrimidin-2-ylsulfanylmethyl)-4-(4-methoxy-phenyl)-4H-[1,2,4]triazol-3-ylsulfanyl]-N-(4-methoxy-phenyl)-acetamide]
- pIC50 ± SE ([1]; Table 2): 3.81 ± 0.03
- IC50 ([1]; Table 2, read-out: IC50): 154 µM

Compound: CCCCn1c(SCC(=O)Nc2cccc(C)n2)nnc1-c1ccco1 [Compound 1d]
- IC50 ([1]; Table 1, read-out: IC50): 103 µM
- IC50 [1, 3]: 105 µM

Compound: Cc1nnc(SCC(=O)Nc2ccc(C(C)C)cc2)n1Cc1ccco1 [Compound 64, 2-(4-Furan-2-ylmethyl-5-methyl-4H-[1,2,4]triazol-3-ylsulfanyl)-N-(4-isopropyl-phenyl)-acetamide]
- pIC50 ± SE ([1]; Table 3): 4.40 ± 0.03
- IC50 ([1]; Table 3, read-out: IC50): 40 µM
- fold loss of activity on truncation of the 4,6-dimethylpyrimidin-2-ylsulfanyl side chain to methyl [1]: 10 fold

Compound: Cc1cc(C)nc(SCc2nnc(SCC(N)=O)n2Cc2ccco2)n1 [Compound 27, 2-[5-(4,6-Dimethyl-pyrimidin-2-ylsulfanylmethyl)-4-furan-2-ylmethyl-4H-[1,2,4]triazol-3-ylsulfanyl]-acetamide]
- pIC50 ± SE ([1]; Table 1): 3.75 ± 0.15
- IC50 ([1]; Table 1, read-out: IC50): 178 µM

Compound: Cc1ccc(NC(=O)CSc2nnc(CSc3nc(C)cc(C)n3)n2Cc2ccco2)c(C)c1 [Compound 34, N-(2,4-Dimethyl-phenyl)-2-[5-(4,6-dimethyl-pyrimidin-2-ylsulfanylmethyl)-4-furan-2-ylmethyl-4H-[1,2,4]triazol-3-ylsulfanyl]-acetamide]
- pIC50 ± SE ([1]; Table 1): 4.83 ± 0.04
- IC50 ([1]; Table 1, read-out: IC50): 15 µM

Compound: C=CCn1c(CSc2nc(C)cc(C)n2)nnc1SCC(=O)Nc1ccc(C(C)C)cc1 [Compound 46, 2-[4-Allyl-5-(4,6-dimethyl-pyrimidin-2-ylsulfanylmethyl)-4H-[1,2,4]triazol-3-ylsulfanyl]-N-(4-isopropyl-phenyl)-acetamide]
- pIC50 ± SE ([1]; Table 2): 5.01 ± 0.03
- IC50 ([1]; Table 2, read-out: IC50): 10 µM

Compound: COc1ccc(-n2c(CSc3nc(C)cc(C)n3)nnc2SCC(=O)Nc2ccc(C)c(C)c2)cc1 [Compound 43, N-(3,4-Dimethyl-phenyl)-2-[5-(4,6-dimethyl-pyrimidin-2-ylsulfanylmethyl)-4-(4-methoxy-phenyl)-4H-[1,2,4]triazol-3-ylsulfanyl]-acetamide]
- pIC50 ± SE ([1]; Table 2): 4.29 ± 0.09
- IC50 ([1]; Table 2, read-out: IC50): 52 µM

Compound: COCCCn1c(C)nnc1SCC(=O)Nc1ccc(C(C)C)cc1 [Compound 66, N-(4-Isopropyl-phenyl)-2-[4-(3-methoxy-propyl)-5-methyl-4H-[1,2,4]triazol-3-ylsulfanyl]-acetamide]
- pIC50 ± SE ([1]; Table 3): 3.79 ± 0.14
- IC50 ([1]; Table 3, read-out: IC50): 164 µM
- fold loss of activity on truncation of the 4,6-dimethylpyrimidin-2-ylsulfanyl side chain to methyl [1]: 23 fold

Compound: Cc1cc(C)nc(SCc2nnc(SCC(=O)Nc3ccc(C(C)C)cc3)n2Cc2ccco2)n1 [Compound 36, 2-[5-(4,6-Dimethyl-pyrimidin-2-ylsulfanylmethyl)-4-furan-2-ylmethyl-4H-[1,2,4]triazol-3-ylsulfanyl]-N-(4-isopropyl-phenyl)-acetamide]
- pIC50 ± SE ([1]; Table 1): 5.35 ± 0.04
- IC50 ([1]; Table 1, read-out: IC50): 4 µM
- fold increase in potency compared to initial hit compound 1a [1]: ~10 fold
- amount of AnxA2 in the S100A10 immunoprecipitate [2]: disrupt the native complex; also recorded: reduced

Compound: Cc1cc(C)nc(SCc2nnc(SCC(=O)Nc3ccc(Cl)cc3)n2Cc2ccco2)n1 [Compound 39, N-(4-Chloro-phenyl)-2-[5-(4,6-dimethyl-pyrimidin-2-ylsulfanylmethyl)-4-furan-2-ylmethyl-4H-[1,2,4]triazol-3-ylsulfanyl]-acetamide]
- pIC50 ± SE ([1]; Table 1): 4.76 ± 0.03
- IC50 ([1]; Table 1, read-out: IC50): 17 µM

Compound: Cc1ccc(C)c(NC(=O)CSc2nnc(CSc3nc(C)cc(C)n3)n2Cc2ccco2)c1 [Compound 1a, N-(2,5-Dimethyl-phenyl)-2-[5-(4,6-dimethyl-pyrimidin-2-ylsulfanylmethyl)-4-furan-2-ylmethyl-4H-[1,2,4]triazol-3-ylsulfanyl]-acetamide]
- IC50 ([1]; Table 1, read-out: IC50): 37 µM
- IC50 [1, 3]: 38 µM
